Experimental data reported in PubChem BioAssay AID248 (DTP/NCI, 2004).
Inconclusive results and toxic doses are left out. Cut-off read from the data, not from the text of the source: active = T/C of 150% or more; inactive = T/C below 125%. Square brackets hold non-standard residues; d marks the D form. Peptide text beside a SMILES is read from it. * marks the point of attachment. ξ: configuration not given here. ξD = NC(CC(=O)O)C(=O)O; Bn = c1ccc(C*)cc1; For = O=C*

System: L1210 leukemia ip in BDF1 mice, survival T/C
Experiment: NCI In Vivo Anticancer Drug Screen. Data for tumor model L1210 Leukemia (intraperitoneal) in B6D2F1 (BDF1) mice
Settings: endpoint: mean survival time, higher = longer survival
How it was run: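 Antitumor effect is assessed in tumor-bearing animals. Survival in the compound arm is compared with a vehicle-dosed control arm and expressed as their quotient.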

[1] = dose: 100.0 mg/kg/injection, schedule: Q04DX003 (ip), vehicle: saline with Tween-80
[2] = dose: 400.0 mg/kg/injection, schedule: Q04DX003 (ip), vehicle: saline with Tween-80
[3] = dose: 100.0 mg/kg/injection, schedule: Q01DX009 (ip), vehicle: saline
[4] = dose: 100.0 mg/kg/injection, schedule: Q04DX003 (ip), vehicle: saline
[5] = dose: 200.0 mg/kg/injection, schedule: Q01DX009 (ip), vehicle: saline
[6] = dose: 200.0 mg/kg/injection, schedule: Q04DX003 (ip), vehicle: saline
[7] = dose: 400.0 mg/kg/injection, schedule: Q01DX009 (ip), vehicle: saline
[8] = dose: 400.0 mg/kg/injection, schedule: Q04DX003 (ip), vehicle: saline
[9] = dose: 100.0 mg/kg/injection, schedule: Q01DX001 (ip), vehicle: saline
[10] = dose: 200.0 mg/kg/injection, schedule: Q01DX001 (ip), vehicle: saline
[11] = dose: 400.0 mg/kg/injection, schedule: Q01DX001 (ip), vehicle: saline
[12] = dose: 100.0 mg/kg/injection, schedule: Q01DX001 (ip), vehicle: carboxymethylcellulose (CMC)
[13] = dose: 200.0 mg/kg/injection, schedule: Q01DX001 (ip), vehicle: carboxymethylcellulose (CMC)
[14] = dose: 400.0 mg/kg/injection, schedule: Q01DX001 (ip), vehicle: carboxymethylcellulose (CMC)
[15] = dose: 100.0 mg/kg/injection, schedule: Q04DX003 (ip), vehicle: Klucel (hydroxypropylcellulose) (HPC)
[16] = dose: 200.0 mg/kg/injection, schedule: Q04DX003 (ip), vehicle: Klucel (hydroxypropylcellulose) (HPC)
[17] = dose: 400.0 mg/kg/injection, schedule: Q04DX003 (ip), vehicle: Klucel (hydroxypropylcellulose) (HPC)
[18] = dose: 100.0 mg/kg/injection, schedule: Q01DX009 (ip), vehicle: Klucel (hydroxypropylcellulose) (HPC)
[19] = dose: 200.0 mg/kg/injection, schedule: Q01DX009 (ip), vehicle: Klucel (hydroxypropylcellulose) (HPC)
[20] = dose: 400.0 mg/kg/injection, schedule: Q01DX009 (ip), vehicle: Klucel (hydroxypropylcellulose) (HPC)
[21] = dose: 25.0 mg/kg/injection, schedule: Q04DX003 (ip), vehicle: saline with Tween-80
[22] = dose: 100.0 mg/kg/injection, schedule: Q01DX009 (ip), vehicle: saline with Tween-80
[23] = dose: 200.0 mg/kg/injection, schedule: Q01DX009 (ip), vehicle: saline with Tween-80
[24] = dose: 200.0 mg/kg/injection, schedule: Q04DX003 (ip), vehicle: saline with Tween-80

Measured: T/C

Fc1ccc([P+]2(c3ccc(F)cc3)C=C(c3ccccc3)[P+](c3ccc(F)cc3)(c3ccc(F)cc3)C=C2c2ccccc2)cc1
inactive: dose: 12.5 mg/kg/injection, schedule: Q01DX001 (ip), vehicle: saline with Tween-80 100 % of control | dose: 25.0 mg/kg/injection, schedule: Q01DX001 (ip), vehicle: saline with Tween-80 98 % of control | dose: 50.0 mg/kg/injection, schedule: Q01DX001 (ip), vehicle: saline with Tween-80 100 % of control

Cc1c(C)c2c(c(C)c1O)CCC(C)(CCCC(C)CCCC(C)CCCC(C)C)O2 (stereo unspecified)
inactive: dose: 31.2 mg/kg/injection, schedule: Q01DX009 (ip), vehicle: carboxymethylcellulose (CMC) 107 % of control | dose: 62.5 mg/kg/injection, schedule: Q01DX009 (ip), vehicle: carboxymethylcellulose (CMC) 101 % of control | [1] 91 % of control | dose: 125.0 mg/kg/injection, schedule: Q01DX009 (ip), vehicle: carboxymethylcellulose (CMC) 100 % of control | dose: 202.0 mg/kg/injection, schedule: Q04DX003 (ip), vehicle: saline with Tween-80 91 % of control | dose: 250.0 mg/kg/injection, schedule: Q01DX009 (ip), vehicle: carboxymethylcellulose (CMC) 100 % of control | [2] 93 % of control

COC(=O)C(N)CCl (stereo unspecified)
inactive: dose: 100.0 mg/kg/injection, schedule: Q01DX001 (ip), vehicle: steriod suspending solution 101 % of control | [3] 93 % of control | [4] 106 % of control | dose: 200.0 mg/kg/injection, schedule: Q01DX001 (ip), vehicle: steriod suspending solution 95 % of control | [5] 100 % of control | [6] 102 % of control | dose: 400.0 mg/kg/injection, schedule: Q01DX001 (ip), vehicle: steriod suspending solution 106 % of control | [7] 101 % of control | [8] 104 % of control

CCCCNC(=O)n1ncc2cc([N+](=O)[O-])c([N+](=O)[O-])cc21
inactive: [9] 103 % of control | [10] 97 % of control | [11] 101 % of control

C[n+]1c(/C=C/c2ccc(O)c3ncccc23)[se]c2ccccc21
inactive: [12] 95 % of control | [4] 108 % of control | [13] 100 % of control | [6] 110 % of control | [14] 105 % of control | [8] 105 % of control

COC(=O)C(Br)C(C)OC (stereo unspecified)
inactive: [3] 96 % of control | [5] 101 % of control

Cc1nc(-c2ccccc2)[nH]c(=O)c1CC(O)c1ccccc1 (stereo unspecified)
inactive: [15] 86 % of control | [16] 92 % of control | [17] 87 % of control

CCOP(=S)(NN=C1CCC(C(C)(C)C)CC1)OCC (stereo unspecified)
inactive: [9] 103 % of control | [10] 97 % of control

C=CCN(CC=C)C(=S)NC(=O)c1ccccc1
inactive: [18] 110 % of control | [19] 104 % of control

COc1cc(NC(=O)CC(C)=O)cc2c(C)cc(=O)n(C)c12
inactive: [18] 101 % of control | [15] 106 % of control | [19] 98 % of control | [16] 89 % of control | [20] 91 % of control | [17] 94 % of control

Cc1c(Br)sc2ccccc12
inactive: [12] 96 % of control | [13] 96 % of control | [14] 107 % of control

O=CNc1ccc2ccccc2c1
inactive: dose: 37.5 mg/kg/injection, schedule: Q04DX003 (ip), vehicle: Klucel (hydroxypropylcellulose) (HPC) 92 % of control | dose: 75.0 mg/kg/injection, schedule: Q04DX003 (ip), vehicle: Klucel (hydroxypropylcellulose) (HPC) 97 % of control | dose: 150.0 mg/kg/injection, schedule: Q04DX003 (ip), vehicle: Klucel (hydroxypropylcellulose) (HPC) 103 % of control

O=C(Nc1ccc([N+](=O)[O-])cc1)Nc1ccc([N+](=O)[O-])cc1 (tested in a mixture with another compound)
inactive: [15] 89 % of control | [5] 98 % of control | [16] 100 % of control | [7] 88 % of control | [17] 89 % of control

C=C1C(=O)OC2C=C(C(O)CC(C)O)C(C)CCC12 (stereo unspecified)
inactive: dose: 50.0 mg/kg/injection, schedule: Q01DX001 (ip), vehicle: water 89 % of control | dose: 100.0 mg/kg/injection, schedule: Q01DX001 (ip), vehicle: water 95 % of control | dose: 200.0 mg/kg/injection, schedule: Q01DX001 (ip), vehicle: water 94 % of control

CC(C)(C)CC(C)(C)NS(=O)(=O)CCCBr
inactive: [21] 95 % of control | dose: 50.0 mg/kg/injection, schedule: Q04DX003 (ip), vehicle: saline with Tween-80 111 % of control

CCC(CO)Nc1nc2ccc(Cl)cc2c2ccccc12 (stereo unspecified)
inactive: [18] 104 % of control | [15] 102 % of control | [19] 90 % of control | [16] 111 % of control | [20] 103 % of control | [17] 107 % of control

CC(C)CC(NC(=O)C(Cc1ccc(OCc2ccccc2)cc1)NC=O)C(=O)O (stereo unspecified) (For-Tyr(Bn)-Leu-OH; configuration not given here)
inactive: [22] 98 % of control | [1] 97 % of control | [23] 98 % of control | [24] 97 % of control | [2] 92 % of control

O=[N+]([O-])c1ccc2ncsc2c1
inactive: [22] 98 % of control | [1] 112 % of control | [23] 98 % of control | [24] 102 % of control | dose: 400.0 mg/kg/injection, schedule: Q01DX009 (ip), vehicle: saline with Tween-80 98 % of control | [2] 104 % of control

Cn1c(=O)c2[nH]c(C3CC4C5CCC(C5)C4C3)nc2n(C)c1=O (stereo unspecified)
inactive: dose: 50.0 mg/kg/injection, schedule: Q01DX001 (ip), vehicle: saline 100 % of control | [9] 108 % of control | [10] 100 % of control | [11] 96 % of control

C=C(C)C1C=CC(O)=C2C(=O)CCC(C)C21C (stereo unspecified)
inactive: dose: 25.0 mg/kg/injection, schedule: Q04DX003 (ip), vehicle: saline 100 % of control | dose: 50.0 mg/kg/injection, schedule: Q04DX003 (ip), vehicle: saline 100 % of control | [4] 100 % of control

O=C(O)C12C3CCC(O3)C1(C(=O)O)C1CCC2O1 (stereo unspecified)
inactive: dose: 100.0 mg/kg/injection, schedule: Q04DX002 (ip), vehicle: Klucel (hydroxypropylcellulose) (HPC) 104 % of control | dose: 200.0 mg/kg/injection, schedule: Q04DX002 (ip), vehicle: Klucel (hydroxypropylcellulose) (HPC) 104 % of control | dose: 400.0 mg/kg/injection, schedule: Q04DX002 (ip), vehicle: Klucel (hydroxypropylcellulose) (HPC) 104 % of control

NCC(=O)NC(CC(=O)O)C(=O)O (stereo unspecified) (H-Gly-[ξD]-OH)
inactive: [9] 97 % of control | [10] 104 % of control | [11] 97 % of control

Nc1nc(Cl)nc(C(Cl)(Cl)Cl)c1Cl (tested in a mixture with another compound)
inactive: dose: 50.0 mg/kg/injection, schedule: Q01DX009 (ip), vehicle: Klucel (hydroxypropylcellulose) (HPC) 94 % of control | [18] 87 % of control | [19] 97 % of control

CC1(C)CN(Cc2ccccc2)C(C)(C)CN1
inactive: dose: 0.19 mg/kg/injection, schedule: Q01DX009 (ip), vehicle: saline with Tween-80 93 % of control | dose: 0.39 mg/kg/injection, schedule: Q01DX009 (ip), vehicle: saline with Tween-80 100 % of control | dose: 0.78 mg/kg/injection, schedule: Q01DX009 (ip), vehicle: saline with Tween-80 106 % of control | dose: 1.56 mg/kg/injection, schedule: Q01DX009 (ip), vehicle: saline with Tween-80 101 % of control | dose: 12.5 mg/kg/injection, schedule: Q04DX003 (ip), vehicle: saline with Tween-80 92 % of control | [21] 103 % of control

CCCCCCCCC(=O)N1CCCC(C)C1 (stereo unspecified)
inactive: dose: 100.0 mg/kg/injection, schedule: Q04DX002 (ip), vehicle: saline 104 % of control | dose: 200.0 mg/kg/injection, schedule: Q04DX002 (ip), vehicle: saline 117 % of control | dose: 400.0 mg/kg/injection, schedule: Q04DX002 (ip), vehicle: saline 101 % of control

CC(=O)OCC[N+](C)(C)CCCCC[N+](C)(C)CCOC(C)=O
inactive: [3] 100 % of control | [4] 95 % of control | [5] 113 % of control | [6] 102 % of control | [8] 88 % of control
